Reference: patent EP2565188A1, “Novel photoactivatable paclitaxel derivatives and uses thereof, in particular in cellbiology and cancer treatment” (Max-Planck-Gesellschaft zur Förderung der Wissenschaften …, priority 2011, dated 2013)

How the values were obtained:
[1] = Solubility test of 10 µM solutions in 1:1000 DMSO:PIPES buffer; assay type: physicochemical
Protocol: 10 mM solutions of PTX derivatives in DMSO were prepared. All substances were soluble in DMSO at this concentration. 10 µM solutions of were obtained by 1:1000 dilution of the stock solution into 80 mM PIPES buffer pH 6.8, containing 2 mM MgCl2 and 1 mM EGTA. Table A: solubility test of 10 µM solutions of PTX derivatives in 1:1000 DMSO:PIPES buffer

HeLa cells [2] = test: Live cell imaging of the microtubule network (Tubulin Tracker / DRAQ5, CLSM); assay type: cell-based, Human; conditions: for microtubule staining by Tubulin Tracker (fluorescence CLSM) / cell morphology / mitosis in microscopy images: 10 µM; for microtubule staining by Tubulin Tracker (fluorescence CLSM) / inhibition of PTX bioactivity / binding of PTX to β-tubulin by the cage / cell morphology / mitosis in microscopy images / concentrations at which the derivative bound to tubulin / concentration triggering the multiple nuclei pattern: 24 h; for inhibition of PTX bioactivity / binding of PTX to β-tubulin by the cage: concentrations up to 10 µM
Protocol: (§1) Human cervix carcinoma cells, HeLa cells (#ACC57, DMSZ, Germany), were cultured in DMEM medium (Invitrogen) supplemented with 10% fetal calf serum (FCS, Gibco) in a humidified incubator at 37°C/5%CO2.
In order to visualize the influence of the PTX derivatives in the microtubule network of the cell, a live cell microscopy analysis of HeLa cells after incubation with 10 µM PTX derivatives for 24 hours was performed.
Specifically, microtubules and nuclei of HeLa cells were fluorescently stained with Tubulin Tracker (Invitrogen) and DRAQ5 (biostatus, United Kingdom) respectively, and imaged by a Leica TCS SP5 confocal laser scanning microscopy (CLSM). 30x10^4 HeLa cells were seeded in 8-well chamber slides (Lab-Tek, nunc, Germany) and the culture medium was replaced after ~16 h by compound supplemented medium (250 µL, DMEM, 10% FCS, 1% DMSO) or medium without compound (DMEM, 10% FCS, 1% DMSO) as a specific control. After 24h, cells were carefully washed with Hank's Buffered Saline Solution (HBSS, with Ca^2+ and Mg^2+, Invitrogen) and the buffer was replaced by a staining solution containing 250 nM Tubulin Tracker (Invitrogen) and 5 µM DRAQ5. The cells were stained for 30 min at 37°C/5% CO2 in a humidified incubator. The staining solution was replaced by HBSS and the cells were directly imaged with a 100x plan apochromat (1.4 NA) oil immersion objective on the CLSM system equipped with a CO2 incubator and a temperature control. Tubulin Tracker was excited with an argon laser (488 nm) and the emission was detected by 500-580 nm. DRAQ5 was excited with a HeNe laser (633 nm) and the emission was detected by 650-730 nm. The images have a voxel height and width of 90 nm. Bright field images grabbed with an Olympus IX-70 inverted microscope with a 20x phase contrast objective. Image processing performed with Leica LAS AF lite and ImageJ (Fiji).

HeLa cells [3] = assay type: cell-based, Human; conditions: for cytotoxicity: concentrations at least up to 10 µM
Protocol: as §1
In order to evaluate the bioactivity of the caged PCT derivatives, their cytotoxicity was tested in vitro using HeLa cells. Cells were incubated with PTX and caged PTX derivatives at concentrations between 0.01 and 10 µM.
The effect of PTX and derivatives on cell vitality was measured in a combined assay determining cytotoxicity and cell number by propidium iodide (PI) staining. HeLa cells (2x10^4 cells/well) were diluted in cell culture medium (DMEM, 10 % FCS) and seeded in 96 well-plates (black plate, clear bottom, corning, Amsterdam, Netherlands). The culture medium was replaced after ~16h by compound supplemented medium (200 µL, DMEM, 10 % FCS, 1 % DMSO) or medium without compound (DMEM, 10 % FCS, 1 % DMSO) as a specific control. After 48 h, dead cells with permeable cell membranes were stained with PI ([…], 15 min at 37°C, 5% CO2) and the PI fluorescence intensity was measured with a fluorescence plate reader (excitation wavelength 530 nm, emission wavelength 620 nm, Tecan Infinite M1000, Austria). Subsequently, the cells were lysed with 2% Triton X-100 diluted in DMEM (0.3% Triton X-100 per well, 15 min at 37°C, 5% CO2 and the PI fluorescence was measured again. The vitality of the cells was calculated by the ratio of dead cells (DC) before lyses and the total cell number (TCN) after lyses (1-DC/TCN).

[4] = Photocleavage study: irradiation at 360 nm, composition by HPLC; assay type: physicochemical; conditions: 1 mM, 5% water in acetonitril, share of the labelled species
Protocol: The photolysis of the compounds 2'-Nvoc-PTX and 2',7-bisNvoc-PTX was followed by UV and HPLC analysis of the correspondent solutions after exposure to light at λmax = 360 nm (2.7 mW/cm^2).
3 ml of a 1 mM solution of caged PTX in acetonitrile containing 5% water was placed into a quartz cuvette and was exposed at 360 nm for different irradiation times. Aliquots of 50 µl were taken after various irradiation times, and each aliquot was splitted in two parts. 20 µl were diluted to 400 µl to obtain 50 µM solution for UV-Vis characterisation. The 30 µl left from each aliquot were injected into the HPLC (20 µl loop, analytical column) in order to estimate the composition of the irradiated mixture.
Photocleavage of compound 2',7-bisNvoc-PTX was expected to yield the mono-substituted species 2'-Nvoc-PTX and 7-Nvoc-PTX as intermediates that can be further photolyzed to afford free PTX. In fact, HPLC analysis (Fig. 1) confirmed the presence of 2'-Nvoc-PTX (retention time, r.t.= 16.7 min) and 7-Nvoc-PTX (r.t. = 18.2 min) together with the starting compound 2',7-bisNvoc-PTX (r.t. = 21.3 min) and the fully deprotected PTX (r.t. = 11.1 min). The ratio of these compounds within the composition of the irradiated mixture changes with the exposure dose. Fig. 2 and Table B below show the compositional evolution of the mixture with increasing irradiation time as obtained by HPLC analysis. […] However, the influence of other structural factors in the photolytic mechanism cannot be ruled out. Compound 7-Nvoc-PTX could also be isolated from the irradiated mixture in milligram scale. Table B. Molar composition of a solution of 2',7-bisNvoc-PTX (1 mM, 5% water in acetonitril) after different irradiation times, as determined by analysis of HPLC graphs (Fig. 2)

[5] = 10 µM in 1:1000 DMSO:PIPES buffer (80 mM, pH 6.8), time 1 hr
[6] = 10 µM in 1:1000 DMSO:PIPES buffer (80 mM, pH 6.8), time 8 hrs
[7] = 10 µM in 1:1000 DMSO:PIPES buffer (80 mM, pH 6.8), time 24 hrs
[8] = 10 µM in 1:1000 DMSO:PIPES buffer (80 mM, pH 6.8), time 30 hrs
[9] = 10 µM in 1:1000 DMSO:PIPES buffer (80 mM, pH 6.8, 2 mM MgCl2, 1 mM EGTA), time 5 min
[10] = 360 nm (2.7 mW/cm^2), irradiation time 0 min
[11] = 360 nm, irradiation time 60 min
[12] = 360 nm, irradiation time 270 min
[13] = 360 nm, irradiation time 450 min
[14] = 360 nm, irradiation time 570 min
[15] = 360 nm, irradiation time 735 min
[16] = 360 nm, irradiation time 820 min
[17] = 360 nm, irradiation time 1585 min

With `COc1cc(COC(=O)O[C@H]2C[C@H]3OC[C@@]3(OC(C)=O)[C@H]3[C@H](OC(=O)c4ccccc4)[C@]4(O)C[C@H](OC(=O)[C@H](OC(=O)OCc5cc(OC)c(OC)cc5[N+](=O)[O-])[C@@H](NC(=O)c5ccccc5)c5ccccc5)C(C)=C([C@@H](OC(C)=O)C(=O)[C@]23C)C4(C)C)c([N+](=O)[O-])cc1OC` [2',7-bisNvoc-PTX] as the molecule, how does the “solubility test (appearance of solution)” value [1, 5] read?
The value was “clear solution”.

And the “solubility test (appearance of solution)” value [1, 6]?
Its value is “clear solution”.

And the “solubility test (appearance of solution)” value [1, 7]?
Its value is “clear solution”.

And the “solubility test (appearance of solution)” value [1, 8]?
Its value is “turbid solution”.

And the “solubility test (appearance of solution)” value [1, 9]?
The value was “clear solution”.

And the “microtubule staining by Tubulin Tracker (fluorescence CLSM)” value (HeLa cells [2])?
The value was “evenly stained by Tubulin Tracker and showed similar patterns than the negative control”.

And the “inhibition of PTX bioactivity / binding of PTX to β-tubulin by the cage” value (HeLa cells [2])?
The value was “effectively inhibited binding of PTX to β-tubulin”.

And the cytotoxicity (HeLa cells [3]; 48 h)?
Its cytotoxicity is “did not show any cytotoxicity”.

And the “vitality of cells after incubation with irradiated solutions” value (HeLa cells [3]; irradiated solutions of 2',7-bisNvoc-PTX, longer irradiation times)?
Its value is 0.5.

And the “cytotoxic effects of irradiated solutions” value (HeLa cells [3]; irradiated solutions of 2',7-bisNvoc-PTX, shortest irradiation time)?
The value was “Cytotoxic effects were visible already at the shortest irradiation time”.

And the “Molar composition of a solution of 2',7-bisNvoc-PTX after irradiation” value (“Molar composition” below) [4, 10]?
Its value is 100%.

And the “Molar composition” value [4, 11]?
Its value is 90.5%.

And the “Molar composition” value [4, 12]?
The value was 72.3%.

What about the “Molar composition” value [4, 13] of the same molecule?
Its value is 51.1%.

What about the “Molar composition” value [4, 14] of the same molecule?
Its value is 42.2%.

What about the “Molar composition” value [4, 15] of the same molecule?
The value was 27.5%.

What about the “Molar composition” value [4, 16] of the same molecule?
Its value is 24.3%.

And the “Molar composition” value [4, 17]?
Its value is 6.1%.

With `COc1cc(COC(=O)O[C@@H](C(=O)O[C@H]2C[C@@]3(O)[C@@H](OC(=O)c4ccccc4)[C@@H]4[C@]5(OC(C)=O)CO[C@@H]5C[C@H](O)[C@@]4(C)C(=O)[C@H](OC(C)=O)C(=C2C)C3(C)C)[C@@H](NC(=O)c2ccccc2)c2ccccc2)c([N+](=O)[O-])cc1OC` [2'-Nvoc-PTX] as the molecule, how does the “solubility test (appearance of solution)” value [1, 5] read?
The value was “clear solution”.

What about the “solubility test (appearance of solution)” value [1, 6] of the same molecule?
Its value is “clear solution”.

What about the “solubility test (appearance of solution)” value [1, 7] of the same molecule?
Its value is “turbid solution”.

And the “solubility test (appearance of solution)” value [1, 8]?
Its value is “Suspension”.

And the “solubility test (appearance of solution)” value [1, 9]?
The value was “clear solution”.

What about the “cell morphology / mitosis in microscopy images” value (HeLa cells [2]) of the same molecule?
The value was “showed similar results to free PTX”.

And the “concentrations at which the derivative bound to tubulin” value (HeLa cells [2])?
The value was greater than 10 nM.

And the “inhibition of PTX bioactivity / binding of PTX to β-tubulin by the cage” value (HeLa cells [2])?
Its value is “not able to completely inhibit PTX bioactivity”.

What about the “concentration triggering the multiple nuclei pattern” value (HeLa cells [2]; patterns similar between the compounds (Fig. 6)) of the same molecule?
The value was 0.05 µM.

And the reduction in vitality (HeLa cells [3]; 48 h, at 0.5 µM)?
The reduction in vitality was ~ 25%.

What about the “concentration range over which the derivative can be regarded as caged PTX” value (HeLa cells [3]; vitality results) of the same molecule?
The value was less than 0.1 µM.

What about the “Molar composition” value [4, 10] of the same molecule?
The value was 0%.

What about the “Molar composition” value [4, 11] of the same molecule?
Its value is 6.3%.

And the “Molar composition” value [4, 12]?
The value was 17.4%.

And the “Molar composition” value [4, 13]?
Its value is 27.6%.

And the “Molar composition” value [4, 14]?
The value was 32.3%.

And the “Molar composition” value [4, 15]?
Its value is 35.6%.

And the “Molar composition” value [4, 16]?
The value was 38.1%.

And the “Molar composition” value [4, 17]?
The value was 25.6%.

With `COc1cc(COC(=O)O[C@H]2C[C@H]3OC[C@@]3(OC(C)=O)[C@H]3[C@H](OC(=O)c4ccccc4)[C@]4(O)C[C@H](OC(=O)[C@H](O)[C@@H](NC(=O)c5ccccc5)c5ccccc5)C(C)=C([C@@H](OC(C)=O)C(=O)[C@]23C)C4(C)C)c([N+](=O)[O-])cc1OC` [7-Nvoc-PTX] as the molecule, how does the “cell morphology / mitosis in microscopy images” value (HeLa cells [2]) read?
Its value is “formed an adherent monolayer similar to the negative control”.

What about the “microtubule staining by Tubulin Tracker (fluorescence CLSM)” value (HeLa cells [2]) of the same molecule?
Its value is “microtubules were less stained, tripolar spindles appeared and the cells developed multiple nuclei with different sizes”.

And the “concentrations at which the derivative bound to tubulin” value (HeLa cells [2])?
The value was greater than 1000 nM.

What about the “inhibition of PTX bioactivity / binding of PTX to β-tubulin by the cage” value (HeLa cells [2]) of the same molecule?
The value was “not able to completely inhibit PTX bioactivity”.

And the “concentration triggering the multiple nuclei pattern” value (HeLa cells [2]; pattern similar to 2 nM PTX (Fig. 6))?
The value was 10 µM.

And the “prevention of mitotic blocking relative to 2'-Nvoc-PTX” value (HeLa cells [2]; at the concentration tested (10 µM))?
The value was ~ 200 fold.

What about the cytotoxicity (HeLa cells [3]; 48 h) of the same molecule?
The cytotoxicity was “did not show any cytotoxicity”.

What about the “Molar composition” value [4, 10] of the same molecule?
Its value is 0%.

What about the “Molar composition” value [4, 11] of the same molecule?
Its value is 3.2%.

What about the “Molar composition” value [4, 12] of the same molecule?
Its value is 8.6%.

And the “Molar composition” value [4, 13]?
Its value is 15.3%.

What about the “Molar composition” value [4, 14] of the same molecule?
Its value is 14.9%.

What about the “Molar composition” value [4, 15] of the same molecule?
The value was 18.4%.

What about the “Molar composition” value [4, 16] of the same molecule?
Its value is 16.4%.

What about the “Molar composition” value [4, 17] of the same molecule?
The value was 7.8%.
